Series [1] has as its system healthy adult subjects. Nature of the series: Phase 1 electrocardiograms / cardiodynamics. It is filed as in vivo, human. Conditions: one subject, 24 hours after midazolam 3.5 mg IV; not considered clinically significant. As to the method: (§1) Pharmacodynamic parameters included sedation, defined as time to onset of sedation and sedation level, assessed using the Ramsay sedation scale (RSS), and cardiodynamics assessed by QTcF, heart rate, and PR and QRS intervals, and T-wave morphology and U-wave presence, extracted from ECGs collected via Holter monitor from predose through 24 hours postdose.
An analysis of categorical outliers was performed for changes in heart rate; PR, QRS, and QTcF intervals; T-wave morphology; and U-wave presence.
(§2) Vital signs, clinical laboratory values (hematology, serum chemistry, and urinalysis), and 12-lead ECG parameters were summarized by treatment including any abnormal values flagged.

In series [2] the test system is healthy adult subjects. Description: Phase 1 sedation level by Ramsay sedation scale (RSS). It is filed as in vivo, human. The procedure:
as §1
All pharmacodynamic analyses were performed on data from the Safety Population. The RSS scores were summarized by treatment and by timepoint. Time to onset of sedation was summarized by treatment and presented graphically.

Series [3] in a line: Phase 1 relative bioavailability study: plasma pharmacokinetics of midazolam, 1-hydroxymidazolam, ketamine and norketamine. As to the method:
PK analysis was performed using noncompartmental methods in Phoenix WinNonlin® (Version 8.1, Certara, L.P.) in conjunction with the internet-accessible implementation of the Pharsight® Knowledgebase Server™ (PKSO; Version 4.0.4, Certara, L.P). PKSO provides protected and structured storage, audit trails, and version control for study data, analyses, and related files, supporting 21 CFR Part 11 compliance. The analysis was performed in accordance with the Statistical Analysis Plan (Version 1.0, 5 Jan. 2021).
During the PK analysis, concentrations below the limit of quantitation (BLQ) up to the time of the first quantifiable concentration were treated as zero. Embedded (values between 2 quantifiable concentrations) and terminal BLQ concentrations were treated as “missing”. Calculation of the PK characteristics were based on actual elapsed times [h] (relative to time of dose).
All PK analyses were performed on the data from the PK Analysis Population. […] The ANOVA model included factors for sequence, subject within sequence, treatment, and period.

In series [4] the test system is healthy adult subjects. Nature of the series: Phase 1 vital signs and pulse oximetry. It is filed as in vivo, human. To be noted: for Mean changes from baseline in systolic and diastolic blood pressures: MELT-100 3/25 mg and 6/25 mg (so in the source), midazolam 3.5 mg IV, ketamine 18 mg IV, each timepoint.
Description: (§3) The Investigator evaluated safety using physical and oral examinations, O2 saturation (SpO2), vital sign measurements, clinical laboratory evaluations, electrocardiograms (ECGs), reported or observed adverse events (AEs), and assessments of neurocognitive function. Subjects were monitored for any AEs from the first dose through the end of the study.
as §2

The subject of series [5] is healthy adult subjects. Nature of the series: Phase 1 adverse events. The series is classed as in vivo, human.
Description: as §3
Adverse events were coded using the Medical Dictionary for Regulatory Activities (MedDRA, version 22.0, or later) terms and summarized by system organ class (SOC) and preferred term (PT) within SOC. The number and percentage of subjects reporting TEAEs were summarized by reported SOC and PT for each treatment and the population overall. TEAEs were also summarized by maximum severity and nearest relationship to study drug, by SOC and PT for each treatment.
A by-subject AE (including treatment-emergent) data listing, including but not limited to verbatim term, SOC, PT, severity, and relationship to study treatment, was provided. Deaths, SAEs, and other significant AEs, including those leading to early termination of study treatments were listed.

[6] abbreviates: Treatment C: midazolam 3.5 mg IV, mean.
The mark [7] stands for this setting: 5 minutes after ketamine 18 mg IV.
Where [8] appears, read: Treatment D: ketamine 18 mg IV, mean.

Consider two molecules from patent publication US20240207285A1 (Melt Pharmaceuticals, Inc., priority 2022, published 2024).

Usually Vd stands for a proportionality between amount in the body and measured concentration, not a real space. A high value points to extensive tissue distribution. In general, clearance refers to the rate of elimination divided by the concentration. A high value points to a high capacity for elimination. In general, half-life refers to how long it takes for the measured level to halve. Lower therefore signals fast loss. What is called AUC(0-t) is the area under the concentration-time curve up to a stated or last time point. High values mean high exposure, low ones low exposure. What is called AUC(0-inf) is total exposure, with the tail of the curve extrapolated. One may read the Cmax as the maximum level reached in the sampled fluid or tissue. By Tmax is commonly meant the time at which the peak concentration occurs. Take `Cc1ncc2n1-c1ccc(Cl)cc1C(c1ccccc1F)=NC2` [Midazolam, 8-chloro-6-(2-fluorophenyl)-1-methyl-4H-imidazo[1,5-a][1,4]benzodiazepine]: in the series on healthy adult subjects [1], the PR duration entry is reported as “abnormal”. For the same molecule, the “Subjects with RSS scores of 3” value in the series with healthy adult subjects [2] (5 minutes after midazolam 3.5 mg IV) is listed as 2 (8.3%) subjects (%). Besides, the “Highest proportion of subjects with RSS scores >2 postdose” value in the series on healthy adult subjects [2] (midazolam 3.5 mg IV) is reported as roughly 54%. In addition, the “AUCExtrap, midazolam” value in series [3] (setting [6]) stood at 5.58%. Also, the “Clast, midazolam” value in series [3] (setting [6]) came out at 0.000963 µg/mL. The volume of distribution (Vd) in series [3] (human, plasma, iv, 3.5 mg) came to 202 L. The clearance in series [3] (human, plasma, iv, 3.5 mg) is 348 mL/min. For the same molecule, in series [3] (human, plasma, iv, 3.5 mg), the half-life is 420 min. Moreover, the AUC(0-t) in series [3] (human, plasma, iv, 3.5 mg, AUC0-t, midazolam, Treatment C: midazolam 3.5 mg IV, mean) is 0.168 µg·h/mL; in series [3] (human, plasma, iv, 3.5 mg, GeoMean AUC0-t, midazolam, Ref (C) midazolam 3.5 mg IV, least squares geometric mean) it was 0.164 µg·h/mL. The AUC(0-inf) in series [3] (human, plasma, iv, 3.5 mg, AUCinf, midazolam, Treatment C: midazolam 3.5 mg IV, mean) amounted to 0.179 µg·h/mL; in series [3] (human, plasma, iv, 3.5 mg, GeoMean AUCinf, midazolam, Ref (C) midazolam 3.5 mg IV, least squares geometric mean), 0.174 µg·h/mL. The Cmax in series [3] (human, plasma, iv, 3.5 mg, Cmax, midazolam, Treatment C: midazolam 3.5 mg IV, mean) amounted to 0.146 µg/mL; in series [3] (human, plasma, iv, 3.5 mg, GeoMean Cmax, midazolam, Ref (C) midazolam 3.5 mg IV, least squares geometric mean), 0.127 µg/mL. For the same molecule, the Tmax in series [3] (human, plasma, iv, 3.5 mg, Median Tmax, midazolam, Treatment C: midazolam 3.5 mg IV) is 11 min; in series [3] (human, plasma, iv, 3.5 mg, Tmax, midazolam, Treatment C: midazolam 3.5 mg IV, median (range)), 11 min. The “Mean changes from baseline in systolic and diastolic blood pressures” value with healthy adult subjects [4] was “minimal and similar”. Further, the “Mean change from baseline in pulse oximetry” value with healthy adult subjects [4] (midazolam 3.5 mg IV at 10 minutes postdose, MELT-100 6/50 mg at 30 minutes postdose, minimal at 2 hours) was “small mean decrease from baseline”. The “Number of treatment-related AEs” value in the series with healthy adult subjects [5] (midazolam 3.5 mg IV) is reported as 2 events.
For `CNC1(c2ccccc2Cl)CCCCC1=O` (centres unmarked) [Ketamine, 2-(2-chlorophenyl)-2-(methylamino)cyclohexanone], in the series with healthy adult subjects [2] (setting [7]), the “Subjects with RSS score of 1” value is recorded as 1 (4.0%) subjects (%) and the “Subjects with RSS score of 5” value is on record as 1 (4.0%) subjects (%). In addition, the “Highest proportion of subjects with RSS scores >2 postdose” value in the series on healthy adult subjects [2] (ketamine 18 mg IV) is roughly 8%. Moreover, in series [3] (setting [8]), the “AUCExtrap, ketamine” value was determined as 9.64%; the “CL, ketamine” value was determined as 59.9 L/h; the “Clast, ketamine” value is 0.00199 µg/mL. In addition, the half-life in series [3] (human, plasma, iv, 18 mg) was 618 min. In series [3] (human, plasma, iv, 18 mg, AUC0-t, ketamine, Treatment D: ketamine 18 mg IV, mean), this molecule came in with an AUC(0-t) of 0.283 µg·h/mL. For the same molecule, the AUC(0-inf) in series [3] (human, plasma, iv, 18 mg, AUCinf, ketamine, Treatment D: ketamine 18 mg IV, mean) worked out at 0.316 µg·h/mL. In series [3] (human, plasma, iv, 18 mg, Cmax, ketamine, Treatment D: ketamine 18 mg IV, mean), this molecule yielded a Cmax of 0.25 µg/mL. This molecule registered an AUC(0-t) in series [3] (human, plasma, iv, 18 mg, GeoMean AUC0-t, ketamine, Ref (D) ketamine 18 mg IV, least squares geometric mean) of 0.277 µg·h/mL. Also, the AUC(0-inf) in series [3] (human, plasma, iv, 18 mg, GeoMean AUCinf, ketamine, Ref (D) ketamine 18 mg IV, least squares geometric mean) turned out to be 0.307 µg·h/mL. The same molecule displayed a Cmax in series [3] (human, plasma, iv, 18 mg, GeoMean Cmax, ketamine, Ref (D) ketamine 18 mg IV, least squares geometric mean) of 0.208 µg/mL. Besides, the Tmax in series [3] (human, plasma, iv, 18 mg, Tmax, ketamine, Treatment D: ketamine 18 mg IV, median (range)) stood at 10 min. The “Mean changes from baseline in systolic and diastolic blood pressures” value in the series with healthy adult subjects [4] was “highest at the 10-minute timepoint”. In the series with healthy adult subjects [5] (ketamine 18 mg IV), the “Treatment-related AEs of hypertension” value stood at 3 AEs.
